From patent US5861481A, “Peptide lung surfactants and therapeutic combinations” (Merrell Pharmaceuticals Inc., priority 1997, dated 1999)

System: adult rat lavaged lungs
Experiment: Isolated rat lavaged lung model (pressure-volume curves)
Procedure: Preparation of Artificial Surfactants. For triplicate samples of the synthetic lung surfactants 75 mg of DPPC (L-α-dipalmitoylphosphatidylcholine; >99% pure; Avanti Polar Lipids, Birmingham, Ala.) in 1 ml of chloroform were dried under a stream of nitrogen and placed in a lyophilizer overnight to remove traces of organic solvent. To the dry lipid mixture were added 9 ml of water. The preparation was incubated for 1 hr at 45°-50° C. with occasional vortexing. Then, in some samples, […] of dry test peptide were added to the aqueous preparation. The preparations were mildly sonicated with and without peptide in a cleaning bath sonicator (Branson 1200) at 45°-50° C. for 2 h to promote peptide dispersion and peptide-lipid interactions. The resulting lipid-peptide mixtures were divided into three parts, lyophilized and stored at -20° C.
The experimental procedures for animal preparation, pressure-volume curve registration and lung lavage have been described by the rat lung model (Ikegami, et al., (1979) Pediatr. Res. 13, 777-780) as modified by McLean et al., Am. J. Physiol. (1992), L292-L300. Briefly, the lungs of adult rats were suspended in 0.9% saline at 37° C. were connected to a water manometer and an air-filled syringe by a T-tube. The deflation limb of a pressure-volume curve was recorded prior to lavage, after extensive lavage with 0.9% NaCl, 10 mM HEPES, pH 7.4 and after administration of surfactant mixtures in 2 ml of 0.9% NaCl, 10 mM HEPES buffer, pH 7.40. The deflation limbs of the pressure-volume (P-V) curves in adult rat lungs were analyzed by calculating the total lung capacities (% TLC) at 5 and 10 cm H2 O pressure (PC5 and PC10). The per cent of total lung capacities at 5 and 10 cm of H2 O (PC5 and PC10) were measured after addition of the synthetic lung surfactants to adult rat lavaged lungs at a dose of 25 mg of lipid (32 umoles) and 1 mg of peptide. Restorations are based on PC5. […] Comparisons were based on restoration,i.e. for PC5, ([…])×100%/(PC5.sbsb.(sufficient) -PC5.sbsb.(deficient)) and made by one-way analysis of variance using the GLM procedure with specific contrasts of the means (SAS Institute Inc., Cary, N.C.).
References, consisting of DPPC alone and dog lung surfactant, respectively,were employed as reference standards: Reference I was prepared as follows. DPPC was purchased from Avanti Polar Lipids. 25 mg of DPPC in chloroform was dried under a stream of nitrogen and lyophilized to remove traces of organic solvent. To the dry lipid mixture was added 3 ml of water. The preparation was incubated at 45° C. for 1 hour with ultrasonication in a bath sonicator. The lipid was lyophilized, stored at 4° C. for up to one week and mixed with 9 ml of 0.9% NaCl, 20 mM HEPES buffer, pH 7.40. […]

[1] = deflation limb of P-V curve, adult rat lavaged lungs, dose 25 mg lipid and 1 mg peptide, mean ± S.E.

For `CCCCCCCCCCCCCCCC(=O)OC[C@H](COP(=O)([O-])OCC[N+](C)(C)C)OC(=O)CCCCCCCCCCCCCCC` [Reference I, L-α-dipalmitoylphosphatidylcholine], the “effect on improving the compliance of the rat lung” value (adult rat lung model, stated in words) was “no effect”, the “Restoration (%)” value (based on PC5 relative to sufficient and deficient lungs, mean ± S.E.) was -11 ± 8% and the “PC5 (% TLC), per cent of total lung capacity at 5 cm H2O” value [1] was 13 ± 1 % TLC. The “PC10 (% TLC), per cent of total lung capacity at 10 cm H2O” value [1] was 31 ± 2 % TLC.
